# Source: patent US4788304A, “Phospholipase A2 inhibitors” (American Home Products Corporation, priority 1987, dated 1988)
# Where two headings read alike, the source gives them in different places.
# What was measured:
# [1] = test system: Naja mocambique mocambique PLA2; assay: Vascular cutaneous permeability induced by snake venom PLA2 in guinea pigs; format: in vivo, guinea pig (Hartley); details: for % Inhibition (PLA2-induced vascular permeability): standard drug
# [2] = molecular target: T1, human platelet PLA2 (Homo sapiens, UniProt P14555); assay: Inhibition of cell free human platelet PLA2 (hydrolysis of [3H]-AA labelled E. coli phospholipids); format: biochemical; details: for inhibition at 50 µM: pH 7.4, 37° C.
# T1 construct: The PLA2 enriched supernatant fluid is removed and the amount of protein is determined by the Lowry method; from tissue; host or cells: expired human platelets from the blood bank (acid extract, not purified)
# T1 sequence (P14555 21-144): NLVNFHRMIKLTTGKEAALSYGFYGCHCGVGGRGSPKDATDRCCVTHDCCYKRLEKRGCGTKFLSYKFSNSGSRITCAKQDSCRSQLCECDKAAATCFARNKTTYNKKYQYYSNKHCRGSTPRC
# Procedure: The ability of the compounds in the scope of the invention to inhibit the activity of cell free human platelet PLA2 enzyme is measured in the following in vitro assay.
# E. coli, cultured to exponential growth, are sedimented for 15 minutes at 10,000 g and resuspended in sterile isotonic saline (1-3 ml). 10-25 μCi uniformly labeled [^3 H]-arachidonic acid (AA) is added to a sterile flask, evaporated by N2 and resolubilized with 0.3 ml 20% fatty acid-free bovine serum albumen (BSA). 75-100 ml of nutrient broth and 1 ml E. coli are then added to each flask and incubated for 2-3 hours at 37° C. [^3 H]-AA labelled E. coli are then sedimented, suspended in saline and added to fresh nutrient broth and incubated for 1.5 hours at 37° C. to complete [^3 H]-AA incorporation into the phospholipids. After overnight refrigeration of cultures, E. coli are again sedimented, suspended in saline and autoclaved for 15 minutes at 120° C. E. coli cultures are washed twice with saline (first wash contains 1 % BSA) and resuspended in saline. Non-labelled E. coli cultures are also prepared in the same manner. Cell number is determined by measuring the optical density at […] (3×10 cell/ml=1 O.D.). The amount of radioactivity associated with cells is determined by counting a defined volume of cell suspension. The specific activity is subsequently adjusted by adding non-labelled E. coli to yield 2-4×10 cpm per 1×10^10 E. coli.
# Expired human platelets from the blood bank are centrifuged for 15 minutes at 200 g to obtain a platelet rich fraction and to remove the red blood cells. Platelets are sedimented for 15 minutes at 2500 g and the plasma is removed before adding cold 0.18N H2 SO4 (4 ml/unit). Platelets are homogenized, incubated for 1 hour at 4° C., homogenized again and centrifuged for 15 minutes at 10,000 g. The PLA2 enriched supernatant fluid is removed and the amount of protein is determined by the Lowry method. The preparation is divided into various portions and stored at -20° C.
# The assay measures the hydrolysis of E. coli membrane phospholipids and the release of free [^3 H]-AA from the C-2 position of phospholipids by human platelet PLA2. To ice cold 15×100 mm test tubes, the following additions are made; 2.5×10^8 E. coli (equivalent to 5 nmol phospholipid), 5 mM Ca++, 100 mM Tris buffer (pH=7.4), 100 μg platelet extract (or an amount to produce 20-30% hydrolysis), drug or vehicle. Incubation are carried out at 37° C. in a shaking water bath for 30 minutes. The reaction is terminated by the addition of 2 volumes of tetrahydrofuran (THF) and the mixture is vortexed. Hydrolyzed [^3 H]-AA is separated from unhydrolyzed phospholipid by solid phase extraction using Bond elute NH2 columns (Analytichem Intermat.). Columns are conditioned with 0.5 ml THF followed by 0.5 ml THF:H2 O (2.0:0.1 ml v/v). Samples are loaded onto columns and hydrolyzed [^3 H]-AA is eluted with 1 ml THF:glacial acetic acid (98.0:2.0 ml v/v). The elutant is transferred to vials, 10 ml Optifluor is added and the radioactivity is determined by liquid scintillation counting.
# Treatments are corrected for non-enzymatic hydrolysis by subtracting the dpms in treatments containing no enzyme. Mean [^3 H]-AA dpm is determined and a percent inhibition relative to vehicle treated samples is calculated.
# The percent hydrolysis is calculated by the following equation: [formula]
# [3] = test system: synthesis of the arachidonic acid cyclooxygenase oxidation product TxB2; assay: Inhibition of TxB2 synthesis (cyclooxygenase product) by rat polymorphonuclear leukocytes; format: cell-based, rat (female Wistar); details: Leukocyte, A23187-stimulated rat PMN
# [4] = test system: synthesis of LTB4 by rat glycogen-elicited polymorphonuclear leukocytes (PMN); assay: Inhibition of LTB4 synthesis by rat glycogen-elicited polymorphonuclear leukocytes (PMN); format: cell-based, rat (female Wistar); details: Leukocyte, A23187-stimulated rat PMN
# [5] = test system: rat carrageenan paw edema; assay: Rat carrageenan paw edema; format: in vivo, rat (Sprague-Dawley); details: 3 h; for % Inhibition of paw edema: at 50 mg/kg (peroral), 1 h prior to carrageenan
# Procedure: The compounds in the scope of the invention are further tested in the rat carrageenan paw edema to determine their ability to inhibit the acute inflammatory response.
# […] male Sprague-Dawley rats, in groups of 6 animals are injected subcutaneously in the right paw with 0.1 ml of 1% carrageenan at zero time. Mercury plethysmographic readings (ml) of the paw are made at zero time and 3 hours later. Test compounds are suspended or dissolved in 0.5% methylcellulose and given perorally 1 hour prior to carrageenan administration.
# The increase in paw volume (edema in ml.) produced by the carrageenan is measured. Paw edema is calculated (3 hour volume minus zero time volume), and percent inhibition of edema is determined. Unpaired Student's t-test is used to determine statistical significance.
# [6] = test system: AA-induced mouse ear edema; assay: Arachidonic acid (AA)-induced murine ear edema test; format: in vivo, mouse (Swiss Webster); details: 1 mg/ear, 30 min prior to AA, measured 1 h after AA
# [7] = test system: TPA-induced mouse ear edema; assay: TPA-induced murine ear edema test; format: in vivo, mouse (Swiss Webster); details: 1 mg/ear, 30 min after TPA, measured 4 h after TPA
# [8] = test system: oxazolone-induced contact hypersensitivity in the mouse ear; assay: Oxazolone-induced contact hypersensitivity in the mouse ear; format: in vivo, mouse (Swiss Webster); details: dosed at 1 mg/ear
# Procedure: The assay of this Example measures the ability of the compounds in the scope of the invention to inhibit oxazolone-induced contact hypersensitivity in the mouse ear.
# Female, Swiss Webster mice (8 weeks old) are placed into groups of 6 and the abdominal area of each is shaved. The mice are sensitized to oxazolone (4-ethoxymethylene-2-phenyl-oxazol-5-one) by applying 100 μl of a 2% solution in 95% alcohol directly onto the shaved abdomen using an automatic pipette and rubbing the residual oxazolone into the skin with a round wooden stick. Six days after sensitization each mouse is challenged by applying 20 μl of a 2% oxazolone solution in 95% alcohol to the right ear (10 μl on each side) and 20 μl of alcohol alone to the left ear. Compounds for topical applications are prepared in acetone and administered to the right ear 30 min after challenge or 30 min prior to and 5 h after challenge; acetone (vehicle) is applied to the left ear. Compounds for oral administration are suspended in 0.5 ml of 0.5% methyl cellulose and given ten min prior to challenge. Ear thickness of both ears is measured in mm×10^-2 at 24 and 48 h after challenge using an Oditest caliper. Edema is calculated by subtracting the left ear thickness from the right ear thickness. Drug effects are determined by calculating the percentage change from control for each time period.
# [9] = cell free human platelet PLA2, pH 7.4, 37° C., 30 min, read-out: IC50 (PLA2)
inhibition at 50 µM ([2]; 30 min) [%],"IC50 [2, 9] [µM]",Structure (SMILES),inhibition at 10 µM [3] [%],inhibition at 10 µM [4] [%],further results
,,C[C@@H]1C[C@H]2[C@@H]3CCC4=CC(=O)C=C[C@]4(C)[C@@]3(F)[C@@H](O)C[C@]2(C)[C@@]1(O)C(=O)CO [Dexamethasone],,,% Inhibition (PLA2-induced vascular permeability) ([1]; 10 mg/kg p.o.): 49.0%
,,NC1=NN(c2cccc(C(F)(F)F)c2)CC1 [BW 755c],,,% Inhibition (PLA2-induced vascular permeability) ([1]; 200 mg/kg p.o.): 65.3%
84.6,19.2,"COC(=O)C1(C(F)CCCCCOc2ccc(Cl)cc2)CO1 (single isomer, unassigned) [3 (isomer A), 2-[6-(4-Chlorophenoxy)-1-fluorohexyl]-2-oxiranecarboxylic acid methyl ester (isomer A)]",,,
83.8,13.8,"COC(=O)C1(C(F)CCCCOc2ccc(Cl)cc2)CO1 (single isomer, unassigned) [2 (isomer A), 2-[5-(4-Chlorophenoxy)-1-fluoropentyl]-2-oxiranecarboxylic acid methyl ester (isomer A)]",,,
,,"CCCCC/C=C\C/C=C\C/C=C\C/C=C\CCCC(=O)O [Arachidonic Acid, reference compound]",,,IC50 [2]: 10.1 µM
82,11.3,"COC(=O)C1(C(F)(F)CCCCCOc2ccc(Cl)cc2)CO1 (centres unmarked) [7 (gem-difluoro compound), 2-[6-(4-Chlorophenoxy)-1,1-difluorohexyl]-2-oxiranecarboxylic acid methyl ester]",43,58,
,,"COc1ccc2c(c1)c(CC(=O)O)c(C)n2C(=O)c1ccc(Cl)cc1 [Indomethacin, reference compound]",,,"ED50 ([5]; Rattus norvegicus, po, read-out: Oral ED50 (95% C.L.)): 3.7 mg/kg; % Inhibition (PLA2-induced vascular permeability) ([1]; 50 mg/kg p.o.): 15.0%"
88.4,7.1,"COC(=O)C1(C(=O)CCCCCOc2ccc(Cl)cc2)CO1 (centres unmarked) [Example 7A, 2-[6-(4-Chlorophenoxy)-1-oxohexyl]-2-oxiranecarboxylic acid methyl ester]",38,30,"Mouse Ear Edema Assay, % Change from Control, TOPICAL, AA [6]: -59%; Mouse Ear Edema Assay, % Change from Control, TOPICAL, TPA [7]: -70%; % Inhibition of paw edema [5]: 53%"
88,2.6,"COC(=O)C1(C(F)CCCCc2ccccc2)CO1 (single isomer, unassigned) [Example 1 (isomer A), 2-(1-Fluoro-5-phenylpentyl)-2-oxiranecarboxylic acid methyl ester (isomer A)]",,,
,,"COC(=O)C1(C(F)CCCCCOc2ccc(Cl)cc2)CO1 (single isomer, unassigned) [Example 3, 2-[6-(4-Chlorophenoxy)-1-fluorohexyl]-2-oxiranecarboxylic acid methyl ester]",34,17,
91.1,8.4,"COC(=O)C1(C(F)(F)CCCCOc2ccc(Cl)cc2)CO1 (centres unmarked) [6 (gem-difluoro compound), 2-[5-(4-Chlorophenoxy)-1,1-difluoropentyl]-2-oxiranecarboxylic acid methyl ester]",44,7,
,,"O=C(CBr)c1ccc(Br)cc1 [para-Bromophenacyl bromide, reference compound]",,,IC50 [2]: 23.7 µM
,,CN(C)CCC(c1ccc(Cl)cc1)c1ccccn1 (centres unmarked) [Chlorpheniramine],,,% Inhibition (PLA2-induced vascular permeability) ([1]; 2 mg/kg p.o.): 45.0%
81.8,3.2,"COC(=O)C1(C(=O)CCCCc2ccccc2)CO1 (centres unmarked) [Example 9, 2-(5-Phenyl-1-oxopentyl)-2-oxiranecarboxylic acid methyl ester]",1,7,% Inhibition (oxazolone contact hypersensitivity) [8]: 22.0%; % Inhibition of paw edema [5]: 27%

Structure (SMILES),inhibition at 50 µM ([2]; 30 min) [%],"IC50 [2, 9] [µM]",inhibition at 10 µM [3] [%],inhibition at 10 µM [4] [%],further results
"COC(=O)C1(C(F)=CCCCOc2ccc(Cl)cc2)CO1 (centres unmarked) [6 (fluoro-vinyl compound), 2-[5-(4-Chlorophenoxy)-1-fluoro-1-pentenyl]-2-oxiranecarboxylic acid methyl ester]",99.5,3,33,15,"% Inhibition of paw edema [5]: 26%; % Inhibition, iv at 100 mg/kg (PLA2-induced vascular permeability) [1]: 32%"
"CCOC(=O)C1(CCCCCc2ccc(Cl)cc2)CO1 (centres unmarked) [Example 10, 2-[5-(4-Chlorophenyl)pentyl]-2-oxiranecarboxylic acid ethyl ester]",97.2,1.6,4,23,"Mouse Ear Edema Assay, % Change from Control, TOPICAL, AA [6]: -73%; Mouse Ear Edema Assay, % Change from Control, TOPICAL, TPA [7]: -45%; % Inhibition of paw edema [5]: 42%; % Inhibition, iv at 100 mg/kg (PLA2-induced vascular permeability) [1]: 24.1%"
